Results from US20180353500A1, “ADMINISTRATION OF DEUTERATED CFTR POTENTIATORS” (Vertex Pharmaceuticals (Europe) Limited, priority 2015, published 2018).
Read-outs that look alike come from different tables or passages of the source.

Legend:
[1] = Parent vs. metabolite pharmacokinetic profile after a single 150 mg oral dose; type: in vivo, human; conditions: 150 mg single oral dose, FIG. 3
Protocol: Ten healthy male and female volunteers were enrolled in a single ascending dose study of 3 doses of CTP-656 (75, 150 and 300 mg), with a cross-over comparison of 150 mg CTP-656 and 150 mg Kalydeco® (the trade name of ivacaftor) (FIG. 5). Doses of CTP-656 were administered as an aqueous suspension, and Kalydeco was administered as a tablet. All doses of CTP-656 and Kalydeco were administered within 30 minutes after the start of a high-fat containing breakfast. There was a 7 day washout between doses. The objective of the study was to compare the pharmacokinetics of single ascending doses (75, 150, and 300 mg) of CTP-656, to compare the pharmacokinetics of a single dose of 150 mg CTP-656 and 150 mg Kalydeco and to assess the safety and tolerability of CTP-656. […] There is a significant reduction in the production of the metabolites D8-M1 and D6-M6 from CTP-656 relative to the production of the metabolites M1 and M6 from ivacaftor. Thus, the parent-to-M1 ratio of AUC0-24 hr for CTP-656/D8-M1 is 2.0, compared to 0.58 for the ratio of ivacaftor to M1. […] Further, the parent-to-M6 ratio of AUC0-24 hr for CTP-656/D6-M6 is 4.0, compared to 1.5 for the ratio of ivacaftor to M6. […] As a result, the most pharmacologically-active species (i.e., the parent) is the most abundant species for CTP-656, but not for ivacaftor.

[2] = Phase 1 single ascending dose (SAD) clinical trial: pharmacokinetics, safety and tolerability; type: in vivo, human; conditions: for AUC(0-inf): read-out: AUC0-inf, mean; for concentration at 24 h: read-out: C24 hr, mean
Protocol: Ten healthy male and female volunteers were enrolled in a single ascending dose study of 3 doses of CTP-656 (75, 150 and 300 mg), with a cross-over comparison of 150 mg CTP-656 and 150 mg Kalydeco® (the trade name of ivacaftor) (FIG. 5). Doses of CTP-656 were administered as an aqueous suspension, and Kalydeco was administered as a tablet. All doses of CTP-656 and Kalydeco were administered within 30 minutes after the start of a high-fat containing breakfast. There was a 7 day washout between doses. The objective of the study was to compare the pharmacokinetics of single ascending doses (75, 150, and 300 mg) of CTP-656, to compare the pharmacokinetics of a single dose of 150 mg CTP-656 and 150 mg Kalydeco and to assess the safety and tolerability of CTP-656.

[3] = both sexes, human, in vivo, 75 mg single oral dose, after high-fat breakfast
[4] = both sexes, human, in vivo, 150 mg single oral dose, after high-fat breakfast, CTP-656 aqueous suspension, Kalydeco tablet
[5] = both sexes, human, in vivo, 300 mg single oral dose, after high-fat breakfast
[6] = both sexes, human, plasma, 150 mg single oral dose, after high-fat breakfast, CTP-656 aqueous suspension, Kalydeco tablet

For [2H]C([2H])([2H])C(c1cc(C(C)(C)C)c(NC(=O)c2c[nH]c3ccccc3c2=O)cc1O)(C([2H])([2H])[2H])C([2H])([2H])[2H] [CTP-656], the “abundance of parent versus metabolites in plasma over time” value [1] was “most abundant species in plasma at all times measured”, the “CL/F, mean” value ([2]; 75 mg single oral dose, after high-fat breakfast) was 4.9 L/h and the “relationship between dose and exposure” value ([2]; 75 mg, 150 mg and 300 mg, log-log regression analysis) was “greater than dose proportional”. The “AUC0-inf relative to that of Kalydeco tablets” value ([2]; 150 mg single oral dose each) was ~3.5 fold, the “C24 hr relative to that of Kalydeco tablets” value ([2]; 150 mg single oral dose each) was 4.2 fold and the “CL/F relative to that of Kalydeco” value ([2]; 150 mg single oral dose each) was ~30%. The “Cmax relative to that of Kalydeco tablets” value ([2]; 150 mg single oral dose each) was ~2 fold, the “Ratio of CTP-656 to Kalydeco, AUC0-24 hr” value ([2]; 150 mg single oral dose each) was 2.8 and the “Ratio of CTP-656 to Kalydeco, C12 hr” value ([2]; 150 mg single oral dose each) was 3.2. The “Ratio of CTP-656 to Kalydeco, C24 hr” value ([2]; 150 mg single oral dose each) was 4.2, the “Ratio of CTP-656 to Kalydeco, Cmax” value ([2]; 150 mg single oral dose each) was 2.0 and the “Ratio of CTP-656 to Kalydeco, T1/2” value ([2]; 150 mg single oral dose each) was 1.3. For the same compound, the “CL/F, mean” value ([2]; 150 mg single oral dose, after high-fat breakfast, CTP-656 aqueous suspension, Kalydeco tablet) was 3.8 L/h, the “CL/F, mean” value ([2]; 300 mg single oral dose, after high-fat breakfast) was 3.2 L/h and the “differences in safety assessments between CTP-656 and Kalydeco” value ([2]; CTP-656 75, 150 or 300 mg vs Kalydeco 150 mg) was “no clinically significant differences”. The “pharmacokinetic profile compared to Kalydeco” value ([2]; Phase 1 cross-over comparison, 150 mg) was “superior pharmacokinetic profile”, the half-life ([2]; both sexes, human, in vivo, oral, 300 mg, across single doses of 75, 150 and 300 mg, read-out: apparent terminal half-life) was 840 to 1020 min and the half-life ([2]; both sexes, human, in vivo, po, 75 mg, 75 mg single oral dose, after high-fat breakfast, read-out: T1/2, mean (converted)) was 846 min. For the same compound, the half-life ([2]; both sexes, human, in vivo, po, 150 mg, 150 mg single oral dose, after high-fat breakfast, CTP-656 aqueous suspension, Kalydeco tablet, read-out: T1/2, mean (converted)) was 900 min, the half-life ([2]; both sexes, human, in vivo, po, 300 mg, 300 mg single oral dose, after high-fat breakfast, read-out: T1/2, mean (converted)) was 1040 min and the Cmax [2, 3] was 838 ng/mL. It also gave a Tmax ([2]; both sexes, human, in vivo, 75 mg single oral dose, after high-fat breakfast, healthy volunteers, read-out: Tmax, median) of 5 h, an AUC(0-inf) [2, 3] of 16600 ng·h/mL and a concentration at 24 h [2, 3] of 270 ng/mL. The Cmax [2, 4] was 2210 ng/mL, the AUC(0-inf) [2, 4] was 44900 ng·h/mL and the concentration at 24 h [2, 4] was 712 ng/mL. It also gave a Tmax ([2]; both sexes, human, in vivo, 150 mg single oral dose, after high-fat breakfast, CTP-656 aqueous suspension, Kalydeco tablet, read-out: Tmax, median) of 5 h, a Cmax [2, 5] of 4970 ng/mL and an AUC(0-inf) [2, 5] of 105000 ng·h/mL. It also gave a concentration at 24 h [2, 5] of 1540 ng/mL, a Tmax ([2]; both sexes, human, in vivo, 300 mg single oral dose, after high-fat breakfast, read-out: Tmax, median) of 5 h and a half-life ([2]; both sexes, human, plasma, po, 150 mg, 150 mg single oral dose, after high-fat breakfast, CTP-656 aqueous suspension, Kalydeco tablet, read-out: T1/2, mean (converted)) of 900 min. The Cmax [2, 6] was 2210 ng/mL, the concentration at 24 h [2, 6] was 712 ng/mL and the AUC(0-t) ([2]; both sexes, human, plasma, 150 mg single oral dose, n = 9, read-out: AUC0-24 hr, mean) was 27300 ng·h/mL. For the same compound, the concentration at 12 h ([2]; both sexes, human, plasma, 150 mg single oral dose, n = 9, read-out: C12 hr, mean) was 1310 ng/mL, the Tmax ([2]; both sexes, human, plasma, 150 mg single oral dose, n = 9, read-out: Tmax, range) was 5 to 10 h and the tolerability ([2]; single oral doses following a high-fat meal, CTP-656 75, 150, 300 mg, Kalydeco 150 mg) was “generally well tolerated”.
